Test results reported in patent US7435740B2 (King Pharmaceuticals Research and Development, Inc., priority 2005, dated 2008).

Legend:
[1] = molecular target: human recombinant A2A adenosine receptors (Homo sapiens, UniProt P29274); test: Radioligand binding to hA2A receptors expressed in CHO cells; details: percentage given after the > bound; meaning not defined in the patent
[2] = molecular target: T1, human recombinant A1 adenosine receptor (Homo sapiens, UniProt P30542); test: [3H]-DPCPX binding to human A1 adenosine receptor expressed in CHO cells
T1 sequence (P30542 1-326): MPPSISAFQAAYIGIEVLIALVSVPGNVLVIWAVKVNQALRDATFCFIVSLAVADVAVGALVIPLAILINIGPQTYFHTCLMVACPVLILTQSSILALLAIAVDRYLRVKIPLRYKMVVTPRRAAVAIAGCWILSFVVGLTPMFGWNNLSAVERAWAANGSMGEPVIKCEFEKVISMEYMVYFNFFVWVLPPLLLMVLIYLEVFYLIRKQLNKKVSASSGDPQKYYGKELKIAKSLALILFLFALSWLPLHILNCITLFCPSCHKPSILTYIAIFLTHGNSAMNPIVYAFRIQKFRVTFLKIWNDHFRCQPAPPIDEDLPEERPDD

[3] = molecular target: T2, human recombinant A3 adenosine receptors (Homo sapiens, UniProt P0DMS8); test: [3H]-MRE 3008F20 binding to hA3 receptors expressed in CHO cells; details: CHO cell membranes, 1 nM [3H]-MRE 3008F20; geometric mean, confidence limits in the line below; read-out: [3H] MRE3008F20 binding to hA3 receptors expressed in CHO cells Ki
T2 construct: expressed in transfected cells; host or cells: CHO cells (membranes)
T2 sequence (P0DMS8 1-318): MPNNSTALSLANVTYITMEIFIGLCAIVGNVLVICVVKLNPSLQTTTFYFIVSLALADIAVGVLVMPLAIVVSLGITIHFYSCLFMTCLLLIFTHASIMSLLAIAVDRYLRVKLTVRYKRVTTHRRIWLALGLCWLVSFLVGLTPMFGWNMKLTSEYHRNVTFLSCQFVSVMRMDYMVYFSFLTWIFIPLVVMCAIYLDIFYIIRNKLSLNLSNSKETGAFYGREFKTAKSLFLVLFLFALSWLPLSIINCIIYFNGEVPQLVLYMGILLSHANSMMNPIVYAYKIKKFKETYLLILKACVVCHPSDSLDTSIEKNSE

[4] = molecular target: T3, human recombinant A2B adenosine receptor (Homo sapiens, UniProt P29275); test: cAMP assay in CHO hA2B; assay type: cell-based; details: percentage given after the > bound; meaning not defined in the patent
T3 sequence (P29275 1-332): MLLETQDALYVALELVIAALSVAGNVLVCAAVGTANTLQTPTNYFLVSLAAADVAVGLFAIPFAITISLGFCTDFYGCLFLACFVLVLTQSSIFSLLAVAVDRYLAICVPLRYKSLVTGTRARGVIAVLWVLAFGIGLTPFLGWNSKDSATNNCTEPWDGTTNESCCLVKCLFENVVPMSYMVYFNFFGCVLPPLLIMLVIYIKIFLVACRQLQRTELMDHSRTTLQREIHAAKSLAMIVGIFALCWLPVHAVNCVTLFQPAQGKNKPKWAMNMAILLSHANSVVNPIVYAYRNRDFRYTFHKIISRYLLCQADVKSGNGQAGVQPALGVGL

human recombinant A2A adenosine receptors, sequence (P29274 whole entry): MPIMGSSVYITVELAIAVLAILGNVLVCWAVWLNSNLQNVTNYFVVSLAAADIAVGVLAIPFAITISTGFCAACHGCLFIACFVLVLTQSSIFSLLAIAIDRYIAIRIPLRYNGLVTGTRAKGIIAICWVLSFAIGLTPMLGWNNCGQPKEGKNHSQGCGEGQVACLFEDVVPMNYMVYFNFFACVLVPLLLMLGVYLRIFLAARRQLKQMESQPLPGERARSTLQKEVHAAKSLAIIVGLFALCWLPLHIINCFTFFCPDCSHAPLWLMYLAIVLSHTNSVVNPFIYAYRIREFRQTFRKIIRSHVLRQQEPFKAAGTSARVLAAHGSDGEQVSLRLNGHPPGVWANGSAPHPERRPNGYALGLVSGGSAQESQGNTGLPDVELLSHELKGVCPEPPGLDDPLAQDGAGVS

[3H] ZM 241385 binding to hA2A receptors, percentage in parentheses [1] [%] | [3H] DPCPX binding to hA1, percentage in parentheses ([2]; percentage given after the > bound, meaning not defined in the patent) [%] | melting point [°C] | Ki [3] [nM] | cAMP assay in CHO hA22B, percentage in parentheses [4] [%] | Ki ([2]; read-out: [3H] DPCPX binding to hA1, CHO cell membranes, 1 nM [3H]-DPCPX, geometric mean with confidence limits in parentheses) [nM] | SMILES
92 | 84 | 259 | 36 | 82 | – | CCCn1c(=O)c2c(nc3[nH]c(C)c(C)n32)n(Cc2ccccc2)c1=O [Compound 25, 1-Benzyl-6,7-dimethyl-3-propyl-1H-imidazo[1,2-f]purine-2,4(3H,8H)-dione]
98 | – | 244 to 245 | 23 | 79 | 350 | CCCn1c(=O)c2c(nc3[nH]c(C4CC4)cn32)n(Cc2ccccc2)c1=O [Compound 23, 1-Benzyl-7-cyclopropyl-3-propyl-1H-imidazo[1,2-f]purine-2,4(3H,8H)-dione]
